Experimental data as given in patent publication US9161930B2, “Pharmaceutical composition for diabetic nephropathy and its preparation and application” (Guangzhou Consun Medicine R & D Co., Ltd., priority 2009, dated 2015).

Key:
[1] = system: STZ diabetic nephropathy model rat; assay: Serum biochemical indicators in rat of diabetic nephropathy (STZ); assay type: in vivo, Wistar rat; details: 14 weeks
Description: (§1) Model by administrating of low dose STZ for several times and determinate as the model rat of diabetic nephropathy, divide into 6 groups with 10 mice/group: model group, positive drug control group (aminoguanidine, 100 mg/kg), water extract of Cortex Mori group, 3 different concentration doses of DPMC group (high dose group: 4 mg/kg; middle dose group: 2 mg/kg; low dose: 1 mg/kg), normal control group.
(§2) Each group is given the same volume corresponding drug in different concentration or physiological saline everyday by intragastric administration for 14 weeks.
(§3) Collect the 24 hour urine after administration is over, calculate the urine volume and determinate the content of total protein of urine, micro-albumen and urine creatinine; obtain blood by eye sockets and determinate the biochemical indicator with automatic biochemistry analyzer; take out of the double kidneys, fix with formalin and remain to histopathologic examination.
(§4) Statistical analysis of all determinations is calculated by interclass t-test and expressed as x±s.

[2] = system: STZ diabetic nephropathy model rat; assay: Pathohistology (pathology score) of rat glomcrulus in model of diabetic nephropathy; assay type: in vivo, Wistar rat; details: 14 weeks
Description: as §1, §2, §3, §4

[3] = system: TGFβ-1; assay: TGFβ-1 expression of rat mesangial cells induced by AGEs (immunocytochemistry staining); assay type: cell-based; details: 48 h, FIG. 1
Description: Put the coverslips pre-treated by poly-L-lysine into 24-well cell culture plates, in order to make the HBZY-1 cells grow on until synchronization. Discard of the supernatant, add 800 μl DMEM medium, 100 μl AGEs (final concentration is 0.25 mg/ml) in each medicine group, then add 100 μl water extract of Cortex Mori (final concentration is 0.1 g/L) or DPMC (final concentration is 0.5, 5, 25 or 125 nM/L). The normal control group is added 1 ml DEME medium when the AGEs group is added 900 μl DMEM medium and 100 μl AGEs (final concentration was 0.25 mg/ml). Every group repeats for 6 times. Then, all the groups are incubated under 5% CO2 incubator at 37° C. for 48 h. Take suction of the cell supernatant for the content determination of hydroxyproline after the cells completely covered the coverslips and take out of the coverslips for immunocytochemistry staining. […]

[4] = system: CTGF; assay: CTGF expression of rat glomcrulus in model of diabetic nephropathy; assay type: in vivo, Wistar rat; details: 14 weeks, STZ rat
Description: as §1, §2, §3, §4

[5] = system: Rat messangial cell line HBZY-1; assay: Hydroxyproline content in supernatant of rat mesangial cells induced by AGEs; assay type: cell-based; details: AGEs 0.25 mg/ml, 48 h, supernatant of HBZY-1 cells
Description: Dissolved the 5% bovine serum albumin (BSA) without globulin and 0.5 mol/L D-amylaceum in 0.2 mol/L phosphate buffered solution (PBS, PH=7.2), filtrated with 0.24 μm micropore film and incubated under 37° C. for 60 days. After the incubation of the advanced glycation end products (AGEs) were finished, the umcombinated material was cleaned by extend dialyse method. Diluted to a necessary concentration and filtrated with 0.22 μm micropore film.
Prepare of unicell suspension with HBZY-1 cells in log phase growth and DMEM medium with 5% newborn calf serum, take 100 μl/well (cell quantities: 1×10^4/well) to the 96-well plate, incubated under 5% CO2 incubator at 37° C. for 24 hours, change with 100 μl the DMEM without serum and incubate another 24 hours to make the cells to anestrum (synchronization). Discard of the supernatant, add 90 μl DMEM medium with 5% newborn calf serum and 10 μl the different concentration of AGEs by gradient dilution with 6 repeat per group, incubate by gradient time, respectively, determinate the proliferation degree of rat mesangial cells by MTT.
Put the coverslips pre-treated by poly-L-lysine into 24-well cell culture plates, in order to make the HBZY-1 cells grow on until synchronization. Discard of the supernatant, add 800 μl DMEM medium, 100 μl AGEs (final concentration is 0.25 mg/ml) in each medicine group, then add 100 μl water extract of Cortex Mori (final concentration is 0.1 g/L) or DPMC (final concentration is 0.5, 5, 25 or 125 nM/L). The normal control group is added 1 ml DEME medium when the AGEs group is added 900 μl DMEM medium and 100 μl AGEs (final concentration was 0.25 mg/ml). Every group repeats for 6 times. Then, all the groups are incubated under 5% CO2 incubator at 37° C. for 48 h. Take suction of the cell supernatant for the content determination of hydroxyproline after the cells completely covered the coverslips and take out of the coverslips for immunocytochemistry staining.
Determinate the hydroxyproline content in cultured fluid of rat mesangial cells and express as x±s, analyze by t-test; observate the TGFβ-1 expression in immunohistochemistry photo of rat mesangial cells under microscope.

[6] = system: STZ diabetic nephropathy model rat; assay: 24 hour urine indicators in rat model of diabetic nephropathy induced by STZ; assay type: in vivo, Wistar rat; details: 14 weeks; for Total protein (mg) of urine / micro-albumen / urine creatinine: 24 hour urine
Description: as §1, §2, §3, §4

[7] = 100 mg/kg intragastric everyday

COC(=O)Nc1ccc(Cc2ccc(NC(=O)OC)cc2)cc1 [DPMC, 4,4′-diphenylmethane-bis(methyl) carbamates]
AGEs ([1]; 1 mg/kg intragastric everyday): 290 ± 59 | BUN ([1]; 1 mg/kg intragastric everyday): 7.0 ± 1.0 mmol/L | LDL ([1]; 1 mg/kg intragastric everyday): 1.91 ± 0.55 mmol/L | MDA ([1]; 1 mg/kg intragastric everyday): 7.8 ± 2.3 nmol/L | SC (umol/L), serum creatinine ([1]; 1 mg/kg intragastric everyday): 91.0 ± 31.1 µmol/L | SOD (U/ml) ([1]; 1 mg/kg intragastric everyday): 498 ± 33 U/ml | TG ([1]; 1 mg/kg intragastric everyday): 3.23 ± 0.76 mmol/L | AGEs ([1]; 2 mg/kg intragastric everyday): 289 ± 56 | BUN ([1]; 2 mg/kg intragastric everyday): 6.6 ± 1.2 mmol/L | LDL ([1]; 2 mg/kg intragastric everyday): 1.51 ± 0.53 mmol/L | MDA ([1]; 2 mg/kg intragastric everyday): 6.8 ± 1.9 nmol/L | SC (umol/L), serum creatinine ([1]; 2 mg/kg intragastric everyday): 76.6 ± 24.5 µmol/L | SOD (U/ml) ([1]; 2 mg/kg intragastric everyday): 513 ± 41 U/ml | TG ([1]; 2 mg/kg intragastric everyday): 2.76 ± 0.80 mmol/L | AGEs ([1]; 4 mg/kg intragastric everyday): 281 ± 78 | BUN ([1]; 4 mg/kg intragastric everyday): 6.5 ± 1.5 mmol/L | LDL ([1]; 4 mg/kg intragastric everyday): 1.43 ± 0.36 mmol/L | MDA ([1]; 4 mg/kg intragastric everyday): 6.8 ± 1.3 nmol/L | SC (umol/L), serum creatinine ([1]; 4 mg/kg intragastric everyday): 74.0 ± 17.1 µmol/L | SOD (U/ml) ([1]; 4 mg/kg intragastric everyday): 520 ± 29 U/ml | TG ([1]; 4 mg/kg intragastric everyday): 2.57 ± 0.80 mmol/L | Pathology score ([2]; 1 mg/kg intragastric everyday): 2.7 ± 1.0 | Pathology score ([2]; 2 mg/kg intragastric everyday): 1.8 ± 1.3 | Pathology score ([2]; 4 mg/kg intragastric everyday): 1.2 ± 1.1 | TGFβ-1 expression of rat mesangial cells induced by AGEs ([3]; different doses 0.5, 5, 25, 125 nM/L): restrain the TGFβ-1 expression increase | TGFβ-1 expression of rat mesangial cells induced by AGEs ([3]; large dose 125 nM/L): performs best | CTGF(%) ([4]; 1 mg/kg intragastric everyday): 7.1 ± 1.6 % | CTGF(%) ([4]; 2 mg/kg intragastric everyday): 6.4 ± 2.7 % | CTGF(%) ([4]; 4 mg/kg intragastric everyday): 6.0 ± 3.1 % | hydroxyproline ([5]; 0.5 nM/L): 7.68 ± 1.10 µg/mL | hydroxyproline ([5]; 5 nM/L): 7.76 ± 1.21 µg/mL | hydroxyproline ([5]; 25 nM/L): 5.71 ± 1.18 µg/mL | hydroxyproline ([5]; 125 nM/L): 4.76 ± 0.58 µg/mL | Urine V (24 hr, ml) ([6]; 1 mg/kg intragastric everyday): 59.9 ± 21.8 mL | Total protein (mg) of urine ([6]; 1 mg/kg intragastric everyday): 69.1 ± 20.4 mg | micro-albumen ([6]; 1 mg/kg intragastric everyday): 1.57 ± 0.56 mg | urine creatinine ([6]; 1 mg/kg intragastric everyday): 1.4 ± 0.6 mmol/L | Urine V (24 hr, ml) ([6]; 2 mg/kg intragastric everyday): 41.3 ± 16.4 mL | Total protein (mg) of urine ([6]; 2 mg/kg intragastric everyday): 54.0 ± 17.4 mg | micro-albumen ([6]; 2 mg/kg intragastric everyday): 0.93 ± 0.55 mg | urine creatinine ([6]; 2 mg/kg intragastric everyday): 2.9 ± 1.2 mmol/L | Urine V (24 hr, ml) ([6]; 4 mg/kg intragastric everyday): 33.9 ± 22.2 mL | Total protein (mg) of urine ([6]; 4 mg/kg intragastric everyday): 46.2 ± 21.6 mg | micro-albumen ([6]; 4 mg/kg intragastric everyday): 0.92 ± 0.42 mg | urine creatinine ([6]; 4 mg/kg intragastric everyday): 4.3 ± 2.0 mmol/L

N=C(N)NN [aminoguanidine, reference compound]
AGEs [1, 7]: 283 ± 78 | BUN [1, 7]: 6.6 ± 0.8 mmol/L | LDL [1, 7]: 2.01 ± 0.58 mmol/L | MDA [1, 7]: 5.9 ± 1.7 nmol/L | SC (umol/L), serum creatinine [1, 7]: 77.7 ± 20.3 µmol/L | SOD (U/ml) [1, 7]: 516 ± 20 U/ml | TG [1, 7]: 3.35 ± 0.87 mmol/L | Pathology score [2, 7]: 2.1 ± 1.0 | CTGF(%) [4, 7]: 5.9 ± 2.2 % | Urine V (24 hr, ml) [6, 7]: 36.2 ± 21.7 mL | Total protein (mg) of urine [6, 7]: 43.2 ± 29.9 mg | micro-albumen [6, 7]: 1.00 ± 0.27 mg | urine creatinine [6, 7]: 4.0 ± 2.3 mmol/L
